Results from patent US7833939B2, “Herbicide compositions” (Kumiai Chemical Industry Co., Ltd., priority 2002, dated 2010).

Experiments:
[1] = test system: velvetleaf (Abutilon theophrasti Medic); assay: Herbicidal effect by upland field soil treatment (Application Example 2): velvetleaf; type: in vivo; settings: 30th day from treatment
Method: (§1) Test for Herbicidal Effect by Upland Field Soil Treatment
(§2) An upland field soil was filled in a plastic pot of 11 cm each of length, width and depth. Seeds of corn and velvetleaf (Abutilon theophrasti Medic) were sowed, followed by covering with the same soil. The wettable powder produced in accordance with Formulation 1 was weighed so as to provide active ingredients in a predetermined amount, and was diluted with water and sprayed uniformly on the soil surface using a small sprayer, in an amount of 100 liters per […]. Then, growing was made in a greenhouse, and the herbicidal effect of each wettable powder was examined at the 30th day from the treatment in accordance with the standard shown in Table 15.

corn [2] = assay: Herbicidal effect by upland field soil treatment (Application Example 2): phytotoxicity to corn; type: in vivo; settings: 30th day from treatment
Method: as §1, §2

[3] = test system: common lambsquarters (Chenopodium album L.); assay: Herbicidal effect by upland field soil treatment (Application Example 1): common lambsquarters; type: in vivo; settings: 30th day from treatment
Method: as §1
as §2, with “corn, green foxtail (Setaria viridis)” for “corn”, “common lambsquarters (Chenopodium album L.)” for “velvetleaf (Abutilon theophrasti Medic)”

[4] = test system: green foxtail (Setaria viridis); assay: Herbicidal effect by upland field soil treatment (Application Example 1): green foxtail; type: in vivo; settings: 30th day from treatment
Method: as §1
as §2, with “corn, green foxtail (Setaria viridis)” for “corn”, “common lambsquarters (Chenopodium album L.)” for “velvetleaf (Abutilon theophrasti Medic)”

corn [5] = assay: Herbicidal effect by upland field soil treatment (Application Example 1): phytotoxicity to corn; type: in vivo; settings: 30th day from treatment
Method: as §1
as §2, with “corn, green foxtail (Setaria viridis)” for “corn”, “common lambsquarters (Chenopodium album L.)” for “velvetleaf (Abutilon theophrasti Medic)”

[6] = 16 g a.i./ha, upland field soil treatment
[7] = 16 g a.i./ha, soil surface spray of wettable powder, index of Table 15
[8] = 32 g a.i./ha, upland field soil treatment

| SMILES | Herbicidal effect Common lambsquarter (Chenopodium album L.) [3, 6] | Herbicidal effect Green foxtail (Sataria viridis) [4, 6] | melting point | Herbicidal effect Corn (corn [5]; [6]) | further results |
| --- | --- | --- | --- | --- | --- |
| CCNc1nc(Cl)nc(NC(C)C)n1 [Atrazine] | – | – | – | – | Velvetleaf (Abutilon theophrasti Medic) ([1]; 125 g a.i./ha): 1 (Herbicidal effect or phytotoxicity of from 10 to 19%); Corn (corn [2]; 125 g a.i./ha): 0 (Herbicidal effect or phytotoxicity of from 0 to 9%) |
| Cn1nc(C(F)(F)F)c(CS(=O)(=O)C2=NOC(C)(C)C2)c1C#N [Compound 3-0016, 3-(5-cyano-1-methyl-3-trifluoromethyl-1H-pyrazol-4-ylmethylsulfonyl)-5,5-dimethyl-2-isoxazoline] | 3 (Herbicidal effect or phytotoxicity of from 30 to 39%) | 3 (Herbicidal effect or phytotoxicity of from 30 to 39%) | 105 to 108 °C | 0 (Herbicidal effect or phytotoxicity of from 0 to 9%) | – |
| CCn1nc(Cl)c(CS(=O)(=O)C2=NOC(C)(C)C2)c1Cl [Compound 3-0017, 3-(3,5-dichloro-1-ethyl-1H-pyrazol-4-ylmethylsulfonyl)-5,5-dimethyl-2-isoxazoline] | 3 (Herbicidal effect or phytotoxicity of from 30 to 39%) | 3 (Herbicidal effect or phytotoxicity of from 30 to 39%) | 105 to 107 °C | 0 (Herbicidal effect or phytotoxicity of from 0 to 9%) | – |
| Cn1nc(C(F)F)c(CS(=O)(=O)C2=NOC(C)(C)C2)c1Cl [Compound 3-0018, 3-(5-chloro-3-difluoromethyl-1-methyl-1H-pyrazol-4-ylmethylsulfonyl)-5,5-dimethyl-2-isoxazoline] | 3 (Herbicidal effect or phytotoxicity of from 30 to 39%) | 3 (Herbicidal effect or phytotoxicity of from 30 to 39%) | 78 to 79 °C | 0 (Herbicidal effect or phytotoxicity of from 0 to 9%) | – |
| Cn1nc(C(F)(F)F)c(CS(=O)(=O)C2=NOC(C)(C)C2)c1Cl [Compound 3-0039, 3-(5-chloro-1-methyl-3-trifluoromethylpyrazol-4-ylmethanesulfonyl)-5,5-dimethyl-2-isoxazoline] | – | – | 115 to 116 °C | – | Herbicidal effect Common lambsquarter (Chenopodium album L.) [3, 7]: 3 (Herbicidal effect or phytotoxicity of from 30 to 39%); Herbicidal effect Green foxtail (Sataria viridis) [4, 7]: 3 (Herbicidal effect or phytotoxicity of from 30 to 39%); Herbicidal effect Corn (corn [5]; [7]): 0 (Herbicidal effect or phytotoxicity of from 0 to 9%) |
| Cn1nc(C(F)(F)F)c(CS(=O)(=O)C2=NOC(C)(C)C2)c1OC(F)F [Compound 3-188] | – | – | – | – | Velvetleaf (Abutilon theophrasti Medic) ([1]; 16 g a.i./ha): 2 (Herbicidal effect or phytotoxicity of from 20 to 29%); Velvetleaf (Abutilon theophrasti Medic) ([1]; 32 g a.i./ha): 2 (Herbicidal effect or phytotoxicity of from 20 to 29%); Corn (corn [2]; 16 g a.i./ha): 0 (Herbicidal effect or phytotoxicity of from 0 to 9%); Corn (corn [2]; 32 g a.i./ha): 0 (Herbicidal effect or phytotoxicity of from 0 to 9%) |
| CCn1nc(C(F)(F)F)c(CS(=O)(=O)C2=NOC(C)(C)C2)c1OC(F)F [Compound 3-0190, 3-(5-difluoromethoxy-1-ethyl-3-trifluoromethyl-1H-pyrazol-4-ylmethanesulfonyl)-5,5-dimethyl-2-isoxazoline] | – | – | 98 to 100 °C | – | Herbicidal effect Common lambsquarter (Chenopodium album L.) [3, 7]: 1 (Herbicidal effect or phytotoxicity of from 10 to 19%); Herbicidal effect Green foxtail (Sataria viridis) [4, 7]: 3 (Herbicidal effect or phytotoxicity of from 30 to 39%); Herbicidal effect Corn (corn [5]; [7]): 0 (Herbicidal effect or phytotoxicity of from 0 to 9%) |
| Cc1onc(C(F)(F)F)c1CS(=O)(=O)C1=NOC(C)(C)C1 [Compound 4-0001, 5,5-dimethyl-3-(5-methyl-3-trifluoromethylisoxazol-4-ylmethylsulfonyl)-2-isoxazoline] | – | – | 135 to 136 °C | – | Herbicidal effect Common lambsquarter (Chenopodium album L.) [3, 8]: 1 (Herbicidal effect or phytotoxicity of from 10 to 19%); Herbicidal effect Green foxtail (Sataria viridis) [4, 8]: 2 (Herbicidal effect or phytotoxicity of from 20 to 29%); Herbicidal effect Corn (corn [5]; [8]): 0 (Herbicidal effect or phytotoxicity of from 0 to 9%) |
